Measured values reported in patent US11505523B2, “HDAC8 inhibitors for treating cancer” (City of Hope, priority 2013, dated 2022).
Several values for one entry are separate records, joined by “and”; a condition that tells them apart may be missing. Equal values may be shown once.

Key:
HDAC8 = HDAC8 (Homo sapiens (Human), UniProt Q9BY41); experiment: Inhibition of HDAC8; assay type: biochemical; settings: for IC50 PCI34051/IC50 compound: inhibition of HDAC8, relative potency (Tables 1-3); for A (relative potency to PCI34051): inhibition of HDAC8, footnote: (Tables 11-13); for IC50: mean SD of three determinations; for HDAC8 inhibitory activity compared with PCI34051: result in words
Chain of HDAC8 (Q9BY41 whole entry): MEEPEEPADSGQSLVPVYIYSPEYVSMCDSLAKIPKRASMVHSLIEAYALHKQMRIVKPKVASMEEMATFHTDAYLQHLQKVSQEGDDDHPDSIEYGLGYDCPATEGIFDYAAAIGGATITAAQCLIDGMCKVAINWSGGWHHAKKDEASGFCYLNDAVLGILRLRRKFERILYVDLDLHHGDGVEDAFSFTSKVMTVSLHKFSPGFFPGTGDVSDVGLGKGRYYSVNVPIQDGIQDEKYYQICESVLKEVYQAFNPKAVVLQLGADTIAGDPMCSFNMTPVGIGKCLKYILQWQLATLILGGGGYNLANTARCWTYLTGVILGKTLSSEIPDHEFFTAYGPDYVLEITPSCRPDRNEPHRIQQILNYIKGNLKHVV

HeLa nuclear HDACs = experiment: Inhibition of HeLa nuclear HDACs (HeLa nuclear extract, mainly HDACs1-3); assay type: biochemical; settings: read-out: HeLa HDAC IC50
MV4-11 cells [1] = experiment: Survival/apoptosis of MV4-11 AML cells by Annexin V labeling; assay type: cell-based, human; settings: Homo sapiens, read-out: MV4-11 Apoptosis IC50
MOLM13 cells [2] = experiment: Survival/apoptosis of MOLM13 AML cells by Annexin V labeling; assay type: cell-based, human; settings: Homo sapiens, read-out: MOLM13 Apoptosis IC50
OCI-AML3 cells = experiment: Survival/apoptosis of OCI-AML3 AML cells by Annexin V labeling; assay type: cell-based, human; settings: Homo sapiens, OCI-AML-3, 48 h, read-out: OCI-AML3 Apoptosis IC50
MV4-11 cells [3] = experiment: Proliferation of MV4-11 cells, luminescent cell viability assay; assay type: cell-based, human; settings: Homo sapiens, read-out: MV4-11 Proliferation IC50
MOLM13 cells [4] = experiment: Proliferation of MOLM13 cells, luminescent cell viability assay; assay type: cell-based, human; settings: Homo sapiens, read-out: MOLM13 Proliferation IC50
H1299 cells = experiment: Cytotoxicity / anti-proliferative activity in H1299 lung cancer cells; settings: read-out: Cytotoxicity IC50 H1299; mean SD of three determinations
Cl1-1 cells = experiment: Cytotoxicity / anti-proliferative activity in CL1-1 lung cancer cells; settings: read-out: Cytotoxicity IC50 Cl1-1; mean SD of three determinations
CL1-5 cells = experiment: Cytotoxicity / anti-proliferative activity in CL1-5 lung cancer cells; settings: read-out: Cytotoxicity IC50 Cl1-5; mean SD of three determinations

| SMILES | IC50 PCI34051/IC50 compound (HDAC8) | A (relative potency to PCI34051) (HDAC8) | IC50 (HeLa nuclear HDACs) [µM] | IC50 (HDAC8) | further results |
| --- | --- | --- | --- | --- | --- |
| COc1ccc(/C=C/C(=O)NO)c(-c2cc(OC)c(OC)c(OC)c2)c1 [Compound 5a] | 0.29 | 0.29 | > 10 | – | – |
| COc1ccc(/C=C/C(=O)NO)c(-c2cccs2)c1 [Compound 5b] | 1.43 | 1.43 | > 10 | – | IC50 (MV4-11 cells [1]; MV4-11, 48 h): 0.524 µM; IC50 (MOLM13 cells [2]; MOLM-13, 48 h): 0.345 µM; IC50 (OCI-AML3 cells): 2.35 µM; IC50 (MV4-11 cells [3]; MV4-11, 48 h): 0.0825 µM; IC50 (MOLM13 cells [4]; MOLM-13, 48 h): 0.0533 µM |
| COc1ccc(/C=C/C(=O)NO)c(-c2cccc(Cl)c2)c1 [Compound 5c] | 1.17 | 1.17 | > 10 | – | – |
| COc1ccc(/C=C/C(=O)NO)c(-c2ccc(F)cc2)c1 [Compound 5d] | 1.90 | 1.90 | > 10 | – | – |
| COc1ccc(/C=C/C(=O)NO)c(-c2ccc3c(c2)OCO3)c1 [Compound 5e] | 1.86 | 1.86 | 8.55 ± 0.00012 | – | IC50 (MV4-11 cells [1]; MV4-11, 48 h): 11.9 µM; IC50 (MOLM13 cells [2]; MOLM-13, 48 h): 11.7 µM; IC50 (OCI-AML3 cells): 12.5 µM; IC50 (MV4-11 cells [3]; MV4-11, 48 h): 7.49 µM; IC50 (MOLM13 cells [4]; MOLM-13, 48 h): 3.36 µM |
| COc1ccc(/C=C/C(=O)NO)c(-c2cccc3[nH]ccc23)c1 [Compound 5f] | 0.64 | 0.64 | > 10 | – | – |
| COc1ccc(/C=C/C(=O)NO)c(-c2cncc3ccccc23)c1 [Compound 5g] | 0.28 | 0.28 | 0.7984 ± 0.0003 | – | – |
| COc1ccc(/C=C/C(=O)NO)c(-c2cnc3ccccc3c2)c1 [Compound 5h] | 0.63 | 0.63 | 0.836 ± 0.0091 | – | IC50 (MV4-11 cells [1]; MV4-11, 48-hr, Annexin V labeling): ~22700 µM; IC50 (MOLM13 cells [2]; MOLM-13, 48-hr, Annexin V labeling): 90.9 µM; IC50 (MV4-11 cells [3]; MV4-11, 48-hr, luminescent cell viability assay): 16.6 µM; IC50 (MOLM13 cells [4]; MOLM-13, 48-hr, luminescent cell viability assay): 7.17 µM |
| COc1ccc(/C=C/C(=O)NO)c(Nc2ccccc2)c1 [Compound 6a] | 0.40 | 0.40 | > 10 | – | – |
| COc1ccc(/C=C/C(=O)NO)c(Nc2ccccc2OC)c1 [Compound 6b] | 0.17 | 0.17 | > 10 | – | – |
| COc1cccc(Nc2cc(OC)ccc2/C=C/C(=O)NO)c1 [Compound 6c] | 0.44 | 0.44 | > 10 | – | – |
| COc1ccc(Nc2cc(OC)ccc2/C=C/C(=O)NO)cc1 [Compound 6d] | 0.30 | 0.30 | > 10 | – | – |
| COc1ccc(/C=C/C(=O)NO)c(Nc2ccc(OC)c(OC)c2)c1 [Compound 6e] | 0.44 | 0.44 | > 10 | – | – |
| COc1ccc(/C=C/C(=O)NO)c(Nc2cc(OC)c(OC)c(OC)c2)c1 [Compound 6f] | 0.24 | 0.24 | > 10 | – | – |
| COc1ccc(/C=C/C(=O)NO)c(OCc2ccccc2)c1 [Compound 13a, (E)-N-Hydroxy-2-benzyloxy-4-methoxycinnamide] | – | – | > 10 | 0.207 ± 0.0134 µM | – |
| COc1ccc(/C=C/C(=O)NO)c(OCc2ccc(Br)cc2)c1 [Compound 13c, (E)-N-Hydroxy-2-(4-bromobenzyloxy)-4-methoxycinnamide] | – | – | > 10 | – | – |
| COc1ccc(COc2cc(OC)ccc2/C=C/C(=O)NO)cc1 [Compound 13d, (E)-N-Hydroxy-2-(4-methoxybenzyloxy)-4-methoxycinnamide] | – | – | > 10 | 0.397 ± 0.0127 µM | – |

| SMILES | IC50 PCI34051/IC50 compound (HDAC8) | A (relative potency to PCI34051) (HDAC8) | IC50 (HeLa nuclear HDACs) [µM] | IC50 (HDAC8) | further results |
| --- | --- | --- | --- | --- | --- |
| COc1cc(Nc2cc(F)ccc2/C=C/C(=O)NO)cc(OC)c1OC [Compound 15a] | 0.38 | 0.38 | > 10 | – | – |
| COc1cc(Nc2cc(C(F)(F)F)ccc2/C=C/C(=O)NO)cc(OC)c1OC [Compound 15b] | 0.55 | 0.55 | > 10 | – | – |
| COc1cc(Nc2c(/C=C/C(=O)NO)ccc(OC)c2OC)cc(OC)c1OC [Compound 15d] | 0.44 | 0.44 | > 10 | – | – |
| COc1ccc(OCCOc2cc(OC)ccc2/C=C/C(=O)NO)cc1 [Compound 18a, (E)-N-Hydroxy-2-(2-(4-methoxyphenoxyoxy)ethoxy)-4-methoxycinnamide] | – | – | > 10 | 0.122 ± 0.0035 µM | – |
| COc1ccc(OC(C)COc2cc(OC)ccc2/C=C/C(=O)NO)cc1 (stereo not shown) [Compound 18b, (E)-N-Hydroxy-2-(2-(4-methoxyphenoxyoxy)propoxy)-4-methoxycinnamide] | – | – | > 10 | 0.191 ± 0.0022 µM | – |
| CCCC(COc1cc(OC)ccc1/C=C/C(=O)NO)Oc1ccc(OC)cc1 (stereo not shown) [Compound 18d, (E)-N-Hydroxy-2-(2-(4-methoxyphenoxyoxy)pentyloxy)-4-methoxycinnamide] | – | – | > 10 | 0.2 ± 0.0065 µM | – |
| COc1cc(Nc2ncccc2/C=C/C(=O)NO)cc(OC)c1OC [Compound 21] | 0.68 | 0.68 | > 10 | – | – |
| COc1ccc(/C=C/C(=O)NO)c(-c2ccccc2)c1 [Compound 22a, (E)-N-Hydroxy-4-methoxy-2-phenylcinnamide] | – | – | > 10 | 0.072 µM and 0.0724 µM | – |
| COc1ccc(/C=C/C(=O)NO)c(-c2cccc3ccccc23)c1 [Compound 22c, (E)-N-Hydroxy-4-methoxy-2-(naphthalen-1-yl)cinnamide] | – | – | > 10 | 0.078 ± 0.0043 µM | – |
| COc1ccc(/C=C/C(=O)NO)c(-c2ccc(Oc3ccccc3)cc2)c1 [Compound 22e, (E)-N-Hydroxy-4-methoxy-2-(4-phenoxyphenyl)cinnamide] | – | – | > 10 | 0.174 ± 0.0059 µM | fold less potent than 22a (HDAC8) (HDAC8): three |
| COc1ccc(/C=C/C(=O)NO)c(-c2ccc(C(=O)c3ccccc3)cc2)c1 [Compound 22f, (E)-N-Hydroxy-4-methoxy-2-(4-benzoylphenyl)cinnamide] | – | – | > 10 | 0.0418 ± 0.0033 µM | HDAC8 inhibitory activity compared with PCI34051 (HDAC8): superior to PCI34051; IC50 (H1299 cells): 0.0084 ± 0.0002 µM; IC50 (Cl1-1 cells): > 0.01 µM; IC50 (CL1-5 cells): > 0.01 µM |
| COc1ccc(/C=C/C(=O)NO)c(-c2cccc3c2oc2ccccc23)c1 [Compound 22g, (E)-N-Hydroxy-4-methoxy-2-(dibenzofuran-4-yl)cinnamide] | – | – | > 10 | 0.0477 ± 0.0007 µM | HDAC8 inhibitory activity compared with PCI34051 (HDAC8): superior to PCI34051; IC50 (H1299 cells): 0.0066 ± 0.0007 µM; IC50 (Cl1-1 cells): 0.0085 ± 0.0012 µM; IC50 (CL1-5 cells): 0.0087 ± 0.0001 µM |
| COc1ccc(/C=C/C(=O)NO)c(Oc2cc(OC)c(OC)c(OC)c2)c1 [Compound 25] | 0.49 | 0.49 | > 10 | – | – |
| CCCOc1ccc(/C=C/C(=O)NO)c(-c2ccccc2)c1 [Compound 27a, (E)-N-Hydroxy-4-propoxy-2-phenylcinnamide] | – | – | > 10 | 0.133 ± 0.0126 µM | – |
| CCCCOc1ccc(/C=C/C(=O)NO)c(-c2ccccc2)c1 [Compound 27b, (E)-N-Hydroxy-4-butoxy-2-phenylcinnamide] | – | – | > 10 | 0.289 ± 0.0301 µM | – |
| CCCCCOc1ccc(/C=C/C(=O)NO)c(-c2ccccc2)c1 [Compound 27c, (E)-N-Hydroxy-4-pentoxy-2-phenylcinnamide] | – | – | > 10 | 0.186 ± 0.0598 µM | – |
| O=C(/C=C/c1ccc(-c2ccccc2)cc1-c1ccccc1)NO [Compound 27d, (E)-N-Hydroxy-2,4-diphenylcinnamide] | – | – | > 10 | 0.1749 ± 0.0002 µM | – |
